Laboratory results as given in patent US9533064B1, “Device and method for decontamination, disinfection, and sanitation” (Nanomist Systems, LLC, priority 2013, dated 2017).

Test system: G. Stearothermophilus
[1] = 36-m^3 room and 110-m^3 carpeted rooms, initial 40-55% RH, 20-25 C, biological indicators in Tyvek pouches

Method: The application of condensed vapor cloud generated biocide dispersion was tested in a 36-m^3 single room and in 110-m^3 two-room model (family room+bathroom). The single room was tiled floor and two-room model had wall-to-wall carpet. With initial room humidity in the range 40-55% RH and 20-25 C, decontamination tests were carried out using biological indicators (BI). Biological indicator test disks were prepared by Mesa Labs. The Biological indicators are inoculated with 4-log, 5-log and 6-log populations of G. Stearothermophilus. The BI's are in Tyvek pouches. […] The condensed vapor generator was calibrated with scaling of room size, mass concentration, carpet/tilled floor, and initial RH and temperature.

OO [HP, hydrogen peroxide]
HP concentration above which 5-log kills were observed [1]: above 0.7 g/m^3
HP concentration above which 6-log kill was observed [1]: above 1.8 g/m^3
kill time (HP mass injection rate of −50 g/min): 10 to 15 min
